Measurements published in patent publication US20180338955A1, “METHODS FOR REGULATION AND TREATMENT OF GLIOMA CELL MIGRATION AND GLIOBLASTOMA” (priority 2015, published 2018).
Entries after “also recorded” stand apart in the source; their conditions may differ.

Tests used:
U87 glioma cells = U87 glioma cells cultured on tenascin and vitronectin; cited from earlier work
glioma xenografts = settings: in vivo; cited from earlier work
Fyn [1] = molecular target: T1, Fyn (Homo sapiens, UniProt P06241); settings: cited from earlier work
Target sequence in this assay (P06241 whole entry, species assumed): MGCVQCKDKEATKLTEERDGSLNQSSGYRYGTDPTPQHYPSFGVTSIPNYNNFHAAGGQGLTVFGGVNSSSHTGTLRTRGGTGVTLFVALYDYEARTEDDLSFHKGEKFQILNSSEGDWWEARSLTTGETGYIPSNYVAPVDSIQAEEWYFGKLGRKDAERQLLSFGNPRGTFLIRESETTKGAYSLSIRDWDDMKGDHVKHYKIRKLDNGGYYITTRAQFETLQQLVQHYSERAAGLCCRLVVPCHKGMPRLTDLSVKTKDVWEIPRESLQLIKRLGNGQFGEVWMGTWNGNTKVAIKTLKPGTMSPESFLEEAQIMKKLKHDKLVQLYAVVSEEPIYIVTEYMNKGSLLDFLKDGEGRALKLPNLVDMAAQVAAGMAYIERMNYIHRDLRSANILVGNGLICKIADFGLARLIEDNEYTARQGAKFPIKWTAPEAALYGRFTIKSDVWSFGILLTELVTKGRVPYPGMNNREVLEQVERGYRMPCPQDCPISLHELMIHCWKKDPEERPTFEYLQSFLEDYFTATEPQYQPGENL

human GSCs [2] = experiment: Migration of human GSCs on purified DRG axon cultures; type: cell-based; settings: purified DRG axons, 72 hours
Protocol: To assess the effect of the Lck inhibitor on migrating glioma cells, GBM spheres were seeded on rat DRG cultures in Supplemented NB-A Medium containing 10% FBS. Spheres were allowed to attach for one hour. Cultures were treated with 500 nM of Lck inhibitor or DMSO vehicle for 72 hours. Samples were fixed in 4% formaldehyde for 10 minutes, permeabilized and blocked with 5% normal goat serum containing 0.3% Triton X-100 in 1×PBS (Sigma) at RT for 1 hour. The samples were stained overnight at 4° C. with Ki67 (Cell Signaling), GFAP (DAKO) and NF (EnCor Biotechnology). Area of glioma stem cell migration for each sample was calculated by normalizing the total area of migration to the interior area of the non-migrating sphere mass. Differences between groups were then confirmed using Student's test.

human GSCs [3] = experiment: Migration of human GSCs along parallel DRG axonal bundles (coverslips with parallel scratches); type: cell-based; settings: human GSC-DRG axon co-cultures, versus DMSO control
Protocol: As inhibition of Lck signalling has a dramatic effect on pseudopodia extension and retraction, Applicants investigated whether Lck may also function to regulate the migration and invasion of human GSCs. […] To assess the effect of Lck signaling on the migration and interaction of hGSCs with DRG axons, Applicants seeded hGSCs on DRG axons and treated the cultures with Lck-I or PBS/DMSO for 72 hours. […] To quantify the effect of Lck inhibition on GSC migration, Applicants added GSCs on DRG axons with and without Lck-I and quantified the surface area covered by the migrating glioma cells using Image-J.

[4] = tested on: human glioblastoma (hGSCs); experiment: Orthotopic xenograft mouse model of human glioblastoma; type: in vivo, Nu/J mice
Protocol: To determine the effect of inhibition of Lck signaling in human glioma formation in vivo, Applicants used an orthotopic xenograft mouse model of human glioblastoma (Singh et al., 2004; Valadez et al., 2014). Applicants injected under stereotactic guidance 200,000 hGSCs at coordinates −2.0 mm AP and +1.5 mm ML relative to Bregma. The Lck-I or the PBS/DMSO were administered through an Alzet pump in the lateral ventricle continuously for 4 weeks. Brains were formalin fixed and stained for human Ki67 4 weeks after the implantation.
Intracranial injections were performed using a stereotaxic apparatus (Kopf) on 8-week-old Nu/J mice initially sedated with 4% isoflurane and maintained with 2% isoflurane. After leveling the skull, a hole was drilled with a #72 micro drill bit (Kyocera) at coordinates −2.0 mm AP and +1.5 mm ML relative to Bregma. A 75 RN Hamilton syringe was then lowered to a depth of −2.5 mm DV at a rate of 0.5 mm per minute, and 200,000 primary GSCs from donor 2 resuspended in a total volume of 4 μl were injected at a rate of 0.5 μl per minute using a Stoelting Quintessiential Stereotaxic Injector. In order to reduce backflow, the syringe was allowed to rest for 2 minutes post-injection before it was withdrawn at a rate of 0.5 mm per minute, and the cavity was immediately sealed with bone wax (Ethicon). A subcutaneous pocket was formed, and an Alzet osmotic pump 1004 fitted with brain infusion kit 3 and containing either 1.175 mg of A77 (Axon Medchem) or DMSO/Kolliphor ELP vehicle was inserted near the left hind limb of the animal. A second hole was drilled at coordinates of +0.5 mm and +1.1 mm ML relative to Bregma with the same micro drill bit to allow placement of the brain infusion catheter in the right lateral ventricle. The brain infusion catheter was lowered into the brain and glued to the skull using Loctite 454 cyanoacrylate adhesive. The incision was sealed using veterinary tissue glue and a dab of antibiotic ointment was placed over the head and neck. Animals were monitored daily for weight loss, pain and distress. After four weeks, animals were euthanized with pentobarbital and perfused with 4% formaldehyde. Brains were harvested, post-fixed in 4% formaldehyde, and processed for paraffin embedding. Paraffin embedded tissue was sliced on a microtome to […] sections and placed on microscope slides. Tissues were stained for H&E and ki67 (Roche) using a Ventana Autostainer. Images were captured using a Zeiss Axiovert inverted microscope.

phospho(Y221)-CrkII = experiment: Western blot of hGSC lysates for phospho(Y221)-CrkII; type: cell-based, human; settings: hGSCs (GSC1, GSC2) on fibronectin, 500 nM, 2 hours
Excerpt: (§1) For total cell lysates, cultures were lysed in 1×SDS lysis buffer supplemented with protease and phosphatase inhibitors (Sigma). Lysates were sonicated and cleared by centrifugation. Samples were separated on 4-12% Bis-Tris SDS-PAGE gels (NuPAGE), transferred on to nitrocellulose and immunoblotted using the following primary antibodies: p(Y418)-Src family, Lck (D88), […], pCrkII (Cell Signaling), mortalin (a kind gift of Dr. Alice Cavanaugh), and β-actin (Sigma). A custom phospho-specific polyclonal antibody was generated against p(Y394)-Lck and affinity-purified against total Lck, Fyn and Lyn (Thermo Fisher). Secondary antibodies used were HRP-conjugate goat anti-mouse and goat anti-rabbit (Cell Signaling). Semi-quantitative analysis was conducted with FluorChem SP analytical software. Statistical significance was determined by the two-tailed Student's t-test.

Fyn [5] = molecular target: T1, Fyn; experiment: Immunoprecipitation/Western blot, phosphorylation state of Fyn; type: cell-based; settings: human glioma cells, 500 nm
Protocol: (§2) For immunoprecipitation studies, U87 MG cells treated with A77 or DMSO vehicle were lysed in 1×RIPA buffer containing protease and phosphatase inhibitors (Sigma). Lysates were cleared via centrifugation and were pre-cleared with TrueBlot anti-rabbit IgG beads (eBiosience) to remove non-specific binding. Primary antibodies against Lck, Src, Fyn, Lyn or Yes (Cell Signaling) were added and the lysates were incubated overnight at 4° C. with gentle rotation. The following day, TrueBlot anti-rabbit IgG (eBioscience) beads were added to the lysate and incubated at 4° C. for 2 hours. Immunoprecipitates were washed, solubilized in 2×Laemmli buffer and boiled for 5 minutes. The supernatants were separated on an 8% Bis-Tris SDS-PAGE gel, transferred to nitrocellulose and immunoblotted.
Target sequence in this assay (P06241 whole entry): as the sequence (P06241 whole entry, species assumed) above

phospho(Y394)-Lck = molecular target: T2, phospho(Y394)-Lck (Homo sapiens, UniProt P06239); experiment: Western blot of hGSC lysates for phospho(Y394)-Lck; type: cell-based; settings: hGSCs (GSC1, GSC2) on fibronectin, 500 nM, 2 hours
T2 construct: hGSCs isolated from two patients with glioblastomas (GSC1 and GSC2) left untreated or treated with 500 nM Lck-I for 2 hours; endogenous in cells; host or cells: primary human glioma stem cells (GSC1, GSC2) from two glioblastoma patients
T2 sequence (P06239 whole entry): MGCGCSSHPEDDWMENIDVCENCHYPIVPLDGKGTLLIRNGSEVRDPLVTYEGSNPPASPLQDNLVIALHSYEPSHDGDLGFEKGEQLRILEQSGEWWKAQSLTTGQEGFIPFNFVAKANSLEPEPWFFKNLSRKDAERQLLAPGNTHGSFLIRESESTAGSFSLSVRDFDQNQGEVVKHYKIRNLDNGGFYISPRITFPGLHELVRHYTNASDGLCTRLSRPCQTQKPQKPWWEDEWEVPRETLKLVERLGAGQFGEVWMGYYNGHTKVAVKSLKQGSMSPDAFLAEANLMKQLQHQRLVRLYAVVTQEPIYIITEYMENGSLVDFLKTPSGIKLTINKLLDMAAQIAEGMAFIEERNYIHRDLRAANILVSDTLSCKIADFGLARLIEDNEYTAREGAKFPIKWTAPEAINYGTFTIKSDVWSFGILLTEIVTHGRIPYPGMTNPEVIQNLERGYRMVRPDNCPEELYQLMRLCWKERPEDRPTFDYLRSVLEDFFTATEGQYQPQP
Protocol: For total cell lysates, cultures were lysed in 1×SDS lysis buffer supplemented with protease and phosphatase inhibitors (Sigma). Lysates were sonicated and cleared by centrifugation. […] A custom phospho-specific polyclonal antibody was generated against p([MUT])-Lck and affinity-purified against total Lck, Fyn and Lyn (Thermo Fisher). Secondary antibodies used were HRP-conjugate goat anti-mouse and goat anti-rabbit (Cell Signaling). Semi-quantitative analysis was conducted with FluorChem SP analytical software. Statistical significance was determined by the two-tailed Student's t-test.

Lyn [6] = molecular target: T3, Lyn (Homo sapiens, UniProt P07948); settings: cited from earlier work
Target sequence in this assay (P07948 whole entry, species assumed): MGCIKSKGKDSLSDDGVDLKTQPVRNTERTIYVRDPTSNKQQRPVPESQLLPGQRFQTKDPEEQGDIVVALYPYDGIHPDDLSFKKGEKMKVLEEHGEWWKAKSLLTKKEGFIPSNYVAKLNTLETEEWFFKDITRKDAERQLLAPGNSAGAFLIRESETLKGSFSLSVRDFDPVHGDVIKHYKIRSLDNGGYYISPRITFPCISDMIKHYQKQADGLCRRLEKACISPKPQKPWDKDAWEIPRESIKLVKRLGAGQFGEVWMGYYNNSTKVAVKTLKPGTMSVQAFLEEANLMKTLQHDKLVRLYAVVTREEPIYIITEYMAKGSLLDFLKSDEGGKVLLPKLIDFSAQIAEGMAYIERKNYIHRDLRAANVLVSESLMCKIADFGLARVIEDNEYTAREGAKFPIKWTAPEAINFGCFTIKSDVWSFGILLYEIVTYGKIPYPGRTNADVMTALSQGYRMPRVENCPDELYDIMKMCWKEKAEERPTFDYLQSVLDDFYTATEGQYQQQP

human GSCs [7] = experiment: Invasion in Alvetex scaffold; type: cell-based; settings: 500 nM, 72 hours, versus untreated
Protocol: Alvetex scaffolds were coated with fibronectin (10 μg/ml) for 2 hours at 37° C. 750,000 GBM cells were plated in the center of each scaffold and allowed to attach for one hour. Cultures were grown in Supplemented NB-A Medium containing 10% FBS. Cultures were treated with 500 nM of Lck inhibitor or DMSO vehicle for 72 hours. Samples were fixed in 4% formaldehyde for 10 minutes, permeabilized with 0.1% Triton X-100 and blocked with 1% BSA-PBS for 30 minutes at room temperature. Samples were subsequently stained with Rhodamine RedX Phalloidin (Life Technologies) and Hoescht 33342 (Life Technologies) following manufacturer's protocols. Slides were mounted with Aqua Poly/Mount (Polysciences) and imaged using a Zeiss confocal microscope.

human GSCs [8] = experiment: Pseudopodia (lamellipodia) formation of human GSCs on fibronectin; type: cell-based; settings: fibronectin substrate, 500 nM, 2 hours, versus untreated/DMSO
Protocol: (§3) To assess pseudopodia formation, GBM stem cells were seeded on fibronectin coated (10 ug/ml, Sigma) glass chamber slides (NUNC) in the presence of serum for 2.5 hours. Cultures were treated with 500 nM of Lck inhibitor or DMSO vehicle for 2 hours and then fixed in 4% formaldehyde. Samples were permeabilized and blocked with 5% normal goat serum containing 0.3% Triton X-100 in 1×PBS (Sigma) at RT for 1 hour. The samples were stained overnight at 4° C. with Phospho-Paxillin (CellSignaling). The following day, secondary antibodies were applied at manufacturer recommended dilutions for 1 hour at RT (Jackson ImmunoResearch). Samples were subsequently stained with Rhodamine RedX Phalloidin (Life Technologies) and Hoescht 33342 (Life Technologies) following manufacturer's protocols. Slides were mounted with Aqua Poly/Mount (Polysciences) and imaged using a Zeiss confocal microscope. Adobe Photoshop was used to count the total number of pseudopodia, which included both axial and radial projections, per cell for each group. Differences between groups were confirmed using Student's t-test.

phospho(Y118)-paxillin [9] = experiment: Immunocytochemistry of phospho(Y118)-paxillin in human GSCs; type: cell-based; settings: 500 nM, 2 hours, versus control
Protocol: as §3

Lyn [10] = molecular target: T3, Lyn; experiment: Immunoprecipitation/Western blot, phosphorylation state of Lyn; type: cell-based; settings: human glioma cells, 500 nm
Protocol: as §2
Target sequence in this assay (P07948 whole entry): as the sequence (P07948 whole entry, species assumed) above

human GSCs [11] = experiment: xCELLigence impedance assay of cell spreading/migration; type: cell-based; settings: 500 nM, versus DMSO
Protocol: The xCELLigence system was used to perform cell migration assays on the RTCA DP instrument. Electrical impedance due to cell migration is represented as cell index. GBM cells were seeded on fibronectin coated wells of the RTCA CIM-plate 16 (ACEA Biosciences) and allowed to attach and spread for 1 hour at room temperature. After 1 hour, wells were treated with DMSO vehicle or 500 nM Lck inhibitor. As cells migrated towards the lower chamber containing 10% FBS with DMSO vehicle or 500 nM Lck inhbitor, measurements were captured every 5 minutes. Cell index data was plotted overtime and the slope between 2 and 6 hours was calculated.

phospho(Y118)-paxillin [12] = experiment: Western blot of hGSC lysates for phospho(Y118)-paxillin; type: cell-based, human; settings: hGSCs (GSC1, GSC2) on fibronectin, 500 nM, 2 hours
Excerpt: as §1

[13] = continuous infusion in the lateral ventricle for 4 weeks, n=5

In the case of CC(C)[C@H]1C(=O)N[C@@H](CCCN=C(N)N)C(=O)NCC(=O)N[C@@H](CC(=O)O)C(=O)N[C@H](Cc2ccccc2)C(=O)N1C [EMD121974, Cilengitide], the apoptosis (U87 glioma cells) is given as “induces apoptosis” and the “effect on glioma xenografts” value (glioma xenografts) is given as “significant regression”.

In the case of COc1cc(-c2nn([C@H]3CC[C@H](N4CCN(C(C)=O)CC4)CC3)c3ncnc(N)c23)ccc1NC(=O)c1cc2ccccc2n1C [Lck-I, A770041], the “specificity for Lck over Fyn” value (Fyn [1]) is listed as 300 fold, the “total area of migration (surface area covered by migrating glioma cells)” value (human GSCs [2]; 500 nM) is listed as “significant reduction” and the “integration of tumor cells within the axonal network” value (human GSCs [2]; n=6) is listed as “almost complete lack of integration; also recorded: limited integration and expansion”. The “migration of individual glioma cells (GFAP+/Ki67+ migrating tumor cells)” value (human GSCs [2]; versus control) was “inhibition of migration; also recorded: significant decrease”, the “migration along parallel axonal bundles (finger-like projections)” value (human GSCs [3]) was “complete inhibition of migration; also recorded: complete ablation of the finger-like projections” and the body condition score ([4]; all treated animals, 4 weeks) was “excellent”. The “side effects of local administration” value ([4]; continuous infusion in the lateral ventricle for 4 weeks) was “no apparent side effects”, the “invasion/migration of human glioma cells within the brain parenchyma” value [4, 13] was “minimal invasion/integration; also recorded: significant inhibition of tumor migration and invasion; also recorded: minimal invasion and migration” and the tissue necrosis [4, 13] was “absence of tissue necrosis; also recorded: lack of focal necrosis”. For the same compound, the tumor formation ([4]; continuous infusion in the lateral ventricle for 4 weeks, versus PBS/DMSO, n=5) was “complete lack of solid tumor formation; also recorded: significant inhibition of tumor formation”, the “phosphorylation level of CrkII, phospho(Y221)-CrkII” value (phospho(Y221)-CrkII) was “significantly reduced; also recorded: significant reduction” and the “phosphorylation state of Fyn” value (Fyn [5]) was “does not affect; also recorded: no effect”. The “phosphorylation level of Lck, phospho(Y394)-Lck” value (phospho(Y394)-Lck) was “significantly reduced; also recorded: significant reduction”, the “specificity for Lck over Lyn” value (Lyn [6]) was 8 fold and the “invasion (depth/total area of invasion within scaffold, z-stack confocal)” value (human GSCs [7]) was “significant inhibition; also recorded: significant reduction”. The “number of pseudopodia (lamellipodia) per cell” value (human GSCs [8]) was “significantly reduced; also recorded: significantly lower”, the “phospho-paxillin(Y118) staining at focal adhesions” value (phospho(Y118)-paxillin [9]) was “reduced; also recorded: almost complete absence” and the “phosphorylation state of Lyn” value (Lyn [10]) was “does not affect; also recorded: no effect”. For the same compound, the “human GSC migration (surface area by electrical impedance)” value (human GSCs [11]) was “significant reduction”, the “cell spreading (cell processes) after addition” value (human GSCs [11]; fibronectin-coated plate) was “immediate retraction of cell processes” and the “phosphorylation level of paxillin, phospho(Y118)-paxillin” value (phospho(Y118)-paxillin [12]) was “significantly reduced; also recorded: significant reduction”.
